# Laboratory results as given in PubChem BioAssay (NCI).
# Several values for one entry are separate records, joined by “and”; a condition that tells them apart may be missing. Identical values can stand only once.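 Values below derive from 48-hour exposures of cells grown in 96-well plates, with endpoints linearly interpolated between the two concentrations bracketing the appropriate inhibition level. GI50: concentration for 50% inhibition of growth. TGI denotes the concentration required for complete inhibition of growth.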
# How the values were obtained:
# Experiment in all cases: inhibition of tumour cell growth, NCI panel, 48 h
# EKVX NSCLC = system: EKVX NSCLC
# MOLT-4 leukemia = system: MOLT-4 leukemia
# OVCAR-5 ovarian = system: OVCAR-5 ovarian
# RPMI-8226 leukemia = system: RPMI-8226 leukemia
# SF-539 CNS = system: SF-539 CNS
# TK-10 renal = system: TK-10 renal
# UO-31 renal = system: UO-31 renal
# A498 renal = system: A498 renal
# PC-3 prostate = system: PC-3 prostate
# T-47D breast = system: T-47D breast
Compound,TGI (EKVX NSCLC) [µM],TGI (MOLT-4 leukemia),TGI (OVCAR-5 ovarian) [µM],TGI (RPMI-8226 leukemia) [µM],TGI (SF-539 CNS) [µM],TGI (TK-10 renal) [µM],TGI (UO-31 renal) [µM],GI50 (A498 renal) [µM],TGI (A498 renal) [µM],GI50 (EKVX NSCLC) [µM],GI50 (MOLT-4 leukemia) [µM],GI50 (OVCAR-5 ovarian) [µM],GI50 (PC-3 prostate) [µM],TGI (PC-3 prostate) [µM],GI50 (RPMI-8226 leukemia) [µM],GI50 (SF-539 CNS) [µM],GI50 (TK-10 renal) [µM],GI50 (UO-31 renal) [µM],TGI (T-47D breast) [µM]
Brc1ccccc1C1SCc2nc3ccccc3n21 (centres undefined),45.6,> 100 µM,68,> 100,33,49.3,22.6,–,–,–,–,–,–,–,–,–,–,–,–
CC(=O)[C@@]12O[C@@H]1CC1C3CCC4=CC(O)CCC4(C)C3CCC12C (some centres undefined),> 100,> 100 µM,88.3,97.1,> 100,56.9,> 100,2.04,59.1,> 100,> 100,27.9,40.3,> 100,21.6,39,15.9,> 100,–
O=c1cc(-c2ccccc2)oc2cc(OCCCOc3ccc4c(=O)cc(-c5ccccc5)oc4c3)ccc12,> 100,> 100 µM,> 100,> 100,> 100,> 100,–,–,–,–,–,–,–,–,–,–,–,–,–
COc1ncnc(NS(=O)(=O)c2ccc(N=C3C(=O)N(CN4CCN(c5c(F)cc6c(=O)c(C(=O)O)cn(C7CC7)c6c5OC)CC4C)c4ccc(Cl)cc43)cc2)c1OC (centres undefined),> 50,> 50 µM,> 50,28.1,> 50,–,> 50,40.8,> 50,27.7,> 50,19.2,9.39,> 50,8.33,16.8,–,32.7,–
CCOC(=O)NC(=O)c1cn(CCCO)c(=O)[nH]c1=O,> 100,> 100 µM,> 100,> 100,> 100,> 100,> 100,–,> 100,–,–,–,–,–,–,–,–,–,–
CCOC(=O)CC(=O)ON(C)C(C)=O,> 100,> 100 µM,> 100,> 100,> 100,> 100,> 100,–,> 100,–,–,–,–,–,–,–,–,–,–
COc1ccc([C@H]2[C@@H](F)C(=O)N2c2cc(OC)c(OC)c(OC)c2)cc1F,> 100,93.4 µM,> 100,37.3,0.217,> 100,> 100,0.847,8.08,0.202,0.146,0.423,0.042,> 100,0.055,0.028,38.6,0.171,–
Cc1ccc(NC(=O)c2cc3cc(N=Nc4ccccc4C(=O)O)ccc3oc2=O)cc1,> 100,> 100 µM,–,> 100,98.5,> 100,> 100,–,–,–,–,–,–,–,–,–,–,–,–
CCOC(=O)C(=C=C=C(c1ccccc1)c1ccccc1)C(=O)OCC,82.8,30.8 µM,35.5,44.9,33.8,31.3,34.1,–,78.9,–,–,–,–,–,–,–,–,–,–
CCN1c2ccccc2C(C(SC)S(=O)(=O)c2ccc(C)cc2)c2c1[nH]c(=O)n(C)c2=O (centres undefined),> 100,> 100 µM,> 100,> 100,> 100,> 100,> 100,–,> 100,–,–,–,–,–,–,–,–,–,–
Cc1cc(-c2ccc3nc(C4CCOCC4)n(CCOC(F)(F)F)c3c2)cn(C)c1=O,> 100,17.5 µM,> 56.4,> 31.6,–,4.64,> 20.7,–,3.03,0.761,0.588,0.552,1.04,–,0.13,–,–,–,–
CCc1cc(Cc2cc(CC)c(NC(=O)C(=O)Cc3ccccn3)c(CC)c2Cl)c(Cl)c(CC)c1NC(=O)C(=O)Cc1ccccn1,> 100,> 100 µM,> 100,> 100,> 100,> 100,> 100,–,> 100,–,–,–,–,–,–,–,–,–,–
COC(OC)C(C)CC(=O)N(C)C (centres undefined),> 100,> 100 µM,> 100,> 100,> 100,> 100,> 100,–,> 100,–,–,–,–,–,–,–,–,–,–
OCCCCCNCc1cc2cc3c(cc2c2cc(OCc4ccccc4)ccc12)OCO3,3.28,4.55 µM,–,–,3,2.95,3.27,3.57,14.2,1.75,1.41,–,–,–,–,1.64,1.55,1.66,–
Clc1ccc(C(c2ccc(Cl)cc2)c2ccccn2)cc1,52.5,56.6 µM,29.5,84.5,33.7,45.3,30.5,–,–,–,–,–,–,–,–,–,–,–,–
CC(=O)OC1COC(n2ccc3cc(Br)c([N+](=O)[O-])cc32)C(OC(C)=O)C1OC(C)=O (centres undefined),> 100,–,–,> 100,44.4,81.7,42.8,–,78.9,–,–,–,–,–,–,–,–,–,–

Compound,TGI (EKVX NSCLC) [µM],TGI (MOLT-4 leukemia),TGI (OVCAR-5 ovarian) [µM],TGI (RPMI-8226 leukemia) [µM],TGI (SF-539 CNS) [µM],TGI (TK-10 renal) [µM],TGI (UO-31 renal) [µM],GI50 (A498 renal) [µM],TGI (A498 renal) [µM],GI50 (EKVX NSCLC) [µM],GI50 (MOLT-4 leukemia) [µM],GI50 (OVCAR-5 ovarian) [µM],GI50 (PC-3 prostate) [µM],TGI (PC-3 prostate) [µM],GI50 (RPMI-8226 leukemia) [µM],GI50 (SF-539 CNS) [µM],GI50 (TK-10 renal) [µM],GI50 (UO-31 renal) [µM],TGI (T-47D breast) [µM]
Cn1cnc([N+](=O)[O-])c1Sc1nc2ccccc2[nH]1,36.9,29.9 µM,> 100,56.4,27.8,40.8,51.9,–,55.9,–,–,–,–,–,–,–,–,–,–
COc1cc(OC)cc(-c2cc(=O)c3c(OC)c(OC)c(OC)c(OC)c3o2)c1,> 100,> 100 µM,> 100,> 100,> 100,> 100,> 100,–,89.6,–,–,–,–,–,–,–,–,–,64.1
C/C(=N\NC(=S)NC(CCC(=O)O)C(=O)O)c1ccccn1 (centres undefined),> 100,> 100 µM,> 100,> 100,> 100,> 100,> 100,–,> 100,–,–,–,–,–,–,–,–,–,–
CC(=O)/C(=C\c1cccc([N+](=O)[O-])c1)C(=O)Nc1ccccc1C,> 100,> 100 µM,> 100,> 100,> 100,> 100,> 100,–,–,–,–,–,–,–,–,–,–,–,–
C#CC1(O)CCC2C3CCc4cc(Oc5nc(F)nc(-c6c7ccccc7c7sc8ccccc8n67)n5)ccc4C3CC[C@@]21C (some centres undefined),–,> 100 µM,> 100,> 100,> 100,> 100,> 100,–,–,–,–,–,–,–,–,–,–,–,–
CC(C)=Cc1cc(C(=O)Nc2ccc(Cl)c(Cl)c2)nc(N)n1,> 100,> 100 µM,> 100,> 100,> 100,> 100,> 100,–,> 100,–,–,–,–,–,–,–,–,–,–
COc1cc2c(c(OC)c1OC)-c1ccc(OC)c(=O)cc1C(NC(=O)c1ccc(N=[N+]=[N-])cc1)CC2 (centres undefined),> 100,9.82 µM,> 100,4.41,0.0611,> 100,> 95.7,–,0.0847,–,–,–,–,–,–,–,–,–,> 100
CC(C)OP(=O)(OC(C)C)C(=NCCN=C(NNc1ccc([N+](=O)[O-])cc1)P(=O)(OC(C)C)OC(C)C)NNc1ccc([N+](=O)[O-])cc1,> 100,> 100 µM,> 100,> 100,> 100,> 100,> 100,–,60.3,–,–,–,–,–,–,–,–,–,–
Cn1c2ccccc2c2cc(-c3ccccc3)c3c(c21)C(=O)c1ccccc1C3=O,–,92.7 µM,–,25.3,49.2,> 100,35.4,–,> 100,–,–,–,–,–,–,–,–,–,–
CCCCCCCCC/C=C1\CCC(CN2CCOCC2)C1=O (centres undefined),33.9,5.84 µM,31.6,1.08,3.74,5.56,14.9,–,24.5,–,–,–,–,4.25,–,–,–,–,–
[Cl-].[La+3].[O-]/N=C(\c1ccccc1)c1ccccn1.[O-]/N=C(\c1ccccc1)c1ccccn1.[O-]/N=C(\c1ccccc1)c1ccccn1,> 89.5,> 100 µM,–,> 100,> 85.7,> 100,> 80.8,77.6,> 100,40.6,37.6,–,–,–,62.1,29.7,> 74.4,30.2,–
COc1ccc(S(=O)(=O)NNS(C)(=O)=O)cc1,> 100,> 100 µM,–,> 100,> 100,> 100,> 100,–,> 100,–,–,–,–,–,–,–,–,–,–
CSc1nc(NC2OCC(OC(C)=O)C(OC(C)=O)C2OC(C)=O)c(N=CC=Nc2c(NC3OCC(OC(C)=O)C(OC(C)=O)C3OC(C)=O)nc(SC)[nH]c2=O)c(=O)[nH]1 (centres undefined),> 100,> 100 µM,> 100,> 100,> 86.4,> 100,> 100,–,> 100,–,–,–,–,–,–,–,–,–,> 100
CN(C)c1nc(=Nc2ccc(N=c3nc(N(C)C)ss3)cc2)ss1,> 100,51.3 µM,> 100,40.7,> 100,> 31.6,> 81.6,–,> 79.3,–,–,–,–,–,–,–,–,–,–
O=C(/C=C\c1ccc(Cl)c(Cl)c1)c1ccc(Cl)cc1Cl,56.2,7.86 µM and 48.4 µM,–,41.4,37.7,–,> 100,> 100,> 100,–,–,–,–,–,2.35,–,–,> 100,–
c1ccc(COc2cccc3ccc[n+](Cc4ccccc4)c23)cc1,> 100,51.8 µM,9.98,14.2,> 100,94.6,75.2,–,97.8,–,–,–,–,–,–,–,–,–,–
